Values of other authors as cited in US20220080020A1, “COMPOSITIONS AND METHODS FOR REDUCING THE TRAN[…] […] USING AN ORAL […] SYSTEM” (priority 2020, published 2022).

How the values were obtained:
ACE2 receptor = conditions: prevents covid 19 attachment
[1] = aqueous solution
[2] = children, xylitol chewing gum or oral solution

Compound	competition with the ACE2 receptor (ACE2 receptor)	solubility (saturated solution) [1]	reduction in the incidence of otitis [2]
Cc1cc(O)c2c(c1)C(=O)c1cc(O)cc(O)c1C2=O [Emodin]	compete with the ACE2 receptor		
OC[C@@H](O)[C@H](O)[C@@H](O)CO [xylitol]		up to 64.2 grams per 100 ml of solution	between a thirty and forty-percent reduction
